What was measured:
[1] = test system: laser-induced thrombi in cremaster arterioles; assay type: in vivo
Source text: A preferred animal model involves intravital microscopy of laser-induced thrombi. The method is described by Rosen et al., 2001, Am J Pathol 158, 1613–1622, which is incorporated herein by reference. Minor variations of that method were employed as described below.
Experimental mice are pre-anesthetized and surgically prepared. A tracheal tube is placed to facilitate breathing and the jugular vein is canulated to allow for maintenance of anesthetic and introduction of compound. The cremaster muscle is then exteriorized. The muscle is affixed over a glass slide, allowing illumination from below. A steady drip of a sodium-bicarbonate buffered salt solution is maintained throughout the experiment to keep the exposed muscle moist. Blood flow in the muscle is visualized using a 40× water immersion lens and epi-illuminated with an appropriately filtered light source. Alexa 488-labeled anti-mouse CD41 antibody is injected through the jugular canulus to label platelets in vivo.
Thrombosis is initiated by damaging the vessel wall (of a 30 μm vessel) with a laser pulse from a MicroPoint LASER attached to the microscope. A LASER pulse is delivered, causing damage in an area smaller than 1 μm. The recruitment of platelets to the thrombus is then monitored by the accumulation of (activated) Alexa 488-labeled platelets at the ablation site using fluorescence microscopy, and the process is recorded digitally. The method thus permits in vivo analysis of platelet activation as measured by platelet aggregation and thrombosis.
The degree of embolization in an untreated mouse can be quantified using software for image analysis, e.g., BioQuant True Color Windows (Biometrics, Nashville, Tenn.), as described in Rosen et al., 2001, supra. The software package permits the determination of the “integrated optical density” or IOD of the thrombus.
Using quantitative intravital fluorescence videomicroscopy with high temporal resolution (111 images/second), the effect of PDE3 inhibition on the platelet recruitment into thrombi was directly observed over time. Platelets were fluorescently labeled by infusing rat-anti-mouse CD41 and Alexa 488-anti-rat IgG through a cannulated jugular vein. The cremaster microvasculature was exposed and mapped and suitable arteriole segments were selected for laser-induced injury. A series of control injuries were generated prior to infusion of the inhibitory compound. The power and the number of laser pulses required to generate each thrombus was recorded. Platelet accumulation to the thrombi following laser ablation was recorded using digital videomicroscopy. The thrombus total fluorescence in each frame of the videos was analyzed using Slidebook software for digital videomicroscopy. The pyridazinone compound was then infused. Following a 15 minute incubation, a series of experimental injuries were generated 250 μm proximal, with relationship to blood flow, of the first injury and the resultant thrombi were recorded. The power and the number of pulses required to induce the control thrombus was used to induce the experimental thrombus. The control and experimental thrombi constituting a pair were compared for statistical analysis. The total fluorescence intensity of the thrombi before and after the infusion of pyridazinone compound was recorded.
Images from a representative experiment of the recruitment of fluorescently-labeled […] platelets into a growing thrombus over time is shown in FIG. 9A.

[2] = test system: PGE1-induced cAMP levels in platelets; assay: augmentation of PGE1-induced cAMP levels in platelets; assay type: cell-based, human; settings: in words
Protocol: (A) Compound was tested for its ability to inhibit SFLLR-, U46619-, ADP-, PMA-, and collagen I-induced platelet α-granule secretion. (B) The effect of the compound on PGE1-stimulated cAMP elevation was analyzed. Platelets were incubated with increasing doses of pyridazinone compound for 30 minutes prior to the 2 minute incubation with PGE1. Platelets were subsequently lysed and cAMP level was assayed using a commercially available ELISA kit (Liao et al., 1998, Eur J Pharmacol 349, 107–14). […] Error bars represent mean ±1 SD (n=4), *P<0.001.
One frequent target of anti-platelet agents is phosphodiesterase III (PDE III). […] The assay is performed as described by Liao et al., 1998, Eur J Pharmacol 349,107–114, incorporated herein by reference. Briefly, aliquots of PRP are exposed to increasing concentrations of the agent for 20 minutes. The PRP is then challenged with 1 μM PGE1 for 2 min The reaction is stopped by adding 10 mM EDTA, followed immediately by boiling for 2 min. The mixture is cooled to 4° C. and the precipitated protein is pelleted. cAMP content in the supernatant is quantitated using an enzyme immunoassay kit (Pharmacia-Amersham, NJ) according to the instructions of the manufacturer.
In order to assess whether the compounds useful according to the invention might act through inhibition phosphodiesterase III, each was tested for its effect on PGE1-induced cAMP increase. Determination of platelet cAMP levels was performed as described by Liao et al., 1998, supra. Aliquots of PRP were exposed to increasing concentrations of the indicated compounds for 20 min. PRP was then challenged with 1 μM PGE1 for 2 min. The reaction was stopped with the addition of 10 mM EDTA followed immediately by boiling for 2 min. The mixture was then cooled to 4° C. and the precipitated protein was pelleted. Cyclic AMP content in the supernatant was then quantified using an enzyme immunoassay kit (Pharmacia-Amersham, NJ) according to the instructions of the manufacturer.

## CC1CC(=O)NN=C1c1ccc(N)c([N+](=O)[O-])c1 (centres unmarked) [6-(4-Amino-3-nitro-phenyl)-5-methyl-4,5-dihydro-2H-pyridazin-3-one]
[1]; 0.6 mg/kg (P<0.05) and 1.2 mg/kg (P<0.01), in words
  stabilized platelet accumulation: dose-dependent inhibition
[1]; 0.6 and 1.2 mg/kg, P<0.05, in words
  maximum platelet accumulation compared to absence of compound: statistically significant decrease
[1]; after laser injury, not affected by PDE3 inhibition, 0.3 and 1.2 mg/kg
  time to achieve the maximum rate of platelet recruitment: approximately 27 seconds
[2]
  effect on PGE1-stimulated cAMP levels in platelets: augments PGE1-induced cAMP levels in a dose-dependent manner
[2]; listed as Pyridazinone compound
  effect on PGE1-stimulated cAMP levels in platelets: augment PGE1-induced cAMP level increase in platelets in a dose-dependent manner

Source: patent publication US7166612B2, “Methods for reducing platelet activation platelet aggregaton or thrombosis” (Beth Israel Deaconess Medical Center, priority 2001, dated 2007)
